# Patent US5385829A, “Method of assaying for acyl-L-carnitines and short-chain acyl-carnitines” (priority 1990, dated 1995)
# Legend:
# [1] = test system: L-carnitine dehydrogenase; test: Substrate specificity of L-carnitine dehydrogenase; type: biochemical; conditions: L-carnitine dehydrogenase from Alcaligenes sp. No. 981
# Experimental: 1 ml of the reaction solution was placed in a small test tube and incubated at 37° C. for 5 mins. and thereto was added 0.02 ml of the […] solution to be examined, to cause the reaction, with agitation. After 10 mins. 2 ml of 0.1N aq. HCl were added thereto to terminate the reaction and the A550 nm of the solution was measured to obtained the absorbance A1.
# On the other hand, the same procedures were repeated for a reaction solution in which the L-carnitine was omitted, to obtain the absorbance A0.
# [2] = test system: L-carnitine dehydrogenase; test: Km values and coenzyme reactivity of L-carnitine dehydrogenase; type: biochemical, Alcaligenes sp. No. 981; conditions: for Km: L-carnitine dehydrogenase, 100 mM tris-HCl buffer pH 9.0
# Experimental: The L-carnitine dehydrogenase used in preparing the analysis reagent for determining the amount of L-carnitine, should have reactivity to the substrate, namely, L-carnitine, and may be employed in combination with a coenzyme such as an NAD (preferably NAD or thio-NAD). Such reactivity can be confirmed using the combination of such coenzyme with the substrate. For example, it has been confirmed that, when using L-carnitine as the substrate and thio-NAD as the coenzyme in 100 mM tris-HCl buffer solution (pH 9.0), the L-carnitine dehydrogenase produced from Alcaligenes sp.
# Km value for NAD^+ was determined by varying the concentration of the NAD^+ in a reaction solution containing 100 mM tris-HCl buffer solution (pH 9.0). 5 units of diaphorase (a product of Toyo Jozo), 0.025% of NBT (a product of Wako Pure Chemical Ind.), 1% of Tween 80 (a product of Wako Pure Chemical Ind.) and 50 mM L-carnitine, whereby a value of 0.141 mM was obtained.
Compound,Km [2] [µM],"enzymatic activity relative to the activity when using NAD as the coenzyme ([2]; L-carnitine as substrate, 100 mM tris-HCl pH 9.0)",Relative Specificity % [1] [%],Km ([2]; listed as NAD^+) [µM]
NCCCC[C@H](N)C(=O)O [Lysine],,,0,
"NC(=O)c1ccc[n+]([C@@H]2O[C@H](COP(=O)([O-])OP(=O)(O)OC[C@H]3O[C@@H](n4cnc5c(N)ncnc54)[C@H](O)[C@@H]3O)[C@@H](O)[C@H]2O)c1 [NAD, nicotinamide adenine dinucleotide]",140,,,141
C[N+](C)(C)CC(=O)[O-] [Glycinebetaine],,,0,
Glucose,,,0,

# Now from value to compound, other results behind:
Km [2] [µM],"enzymatic activity relative to the activity when using NAD as the coenzyme ([2]; L-carnitine as substrate, 100 mM tris-HCl pH 9.0)",Compound,Relative Specificity % [1] [%],Km ([2]; listed as NAD^+) [µM]
9300,,C[N+](C)(C)C[C@H](O)CC(=O)[O-] [L-carnitine],100,
490,about 15%,"NC(=S)c1ccc[n+]([C@@H]2O[C@H](COP(=O)([O-])OP(=O)(O)OC[C@H]3O[C@@H](n4cnc5c(N)ncnc54)[C@H](O)[C@@H]3O)[C@@H](O)[C@H]2O)c1 [thio-NAD, thionicotinamide adenine dinucleotide]",,
